Results: ChEMBL document CHEMBL1145614, “Antagonists of the human adenosine A2A receptor. Part 3: Design and synthesis of pyrazolo[3,4-d]pyrimidines, pyrrolo[2,3-d]pyrimidines and 6-arylpurines” (Bioorg Med Chem Lett, 2008)
Calls of active or inactive are those of the source.

system: Mus musculus; experiment: Reversal of haloperidol-induced hypolocomotion in mouse at 30 mg/kg, ip; format: functional, organism-based; set-up: dose 30 mg/kg; details: not given

Row | SMILES | Activity
1 | CSc1nc(-c2ccco2)c2ncn(C(=O)NCc3ccccc3)c2n1 | inactive
2 | Nc1nc(-c2ccco2)c2cnn(C(=O)NCc3ccccc3)c2n1 | Active
3 | COC(=O)c1cccc(Cn2ncc3c(-c4ccco4)nc(N)nc32)c1 | Active
4 | CS(=O)(=O)c1ccc(Cn2ncc3c(-c4ccco4)nc(N)nc32)cc1 | inactive
5 | Nc1nc(-c2ccco2)c2cnn(Cc3cccc(C(=O)O)c3)c2n1 | inactive
6 | Nc1nc(-c2ccco2)c2ncn(C(=O)NCc3ccccc3)c2n1 | Active
7 | Nc1nc(-c2ccco2)c2ncn(C(=O)NCc3cccs3)c2n1 | Active
8 | Nc1nc(-c2ccco2)c2cc[nH]c2n1 | Active
9 | Nc1nc(-c2ccco2)c2ncn(Cc3ccccc3)c2n1 | Active
10 | Nc1nc(-c2ccco2)c2cnn(Cc3cccc(Cl)c3)c2n1 | Active
11 | Nc1nc(-c2ccco2)c2cnn(Cc3ccccc3Cl)c2n1 | inactive
12 | Cc1cccc(Cn2ncc3c(-c4ccco4)nc(N)nc32)c1 | Active
13 | Nc1nc(-c2ccco2)c2cnn(Cc3ccccc3)c2n1 | Active
14 | Nc1nc(-c2cc[nH]n2)c2cnn(Cc3ccccc3F)c2n1 | Active
15 | Nc1nc(-c2ccco2)c2ncn(Cc3cccc(Cl)c3)c2n1 | inactive
16 | Nc1nc(-c2ccco2)c2ncn(Cc3ccccc3F)c2n1 | Active
17 | C[C@@H](NC(=O)n1cnc2c(-c3ccco3)nc(N)nc21)c1ccccc1 | inactive
18 | Nc1nc(-c2ccco2)c2cnn(CCc3ccccc3)c2n1 | inactive
19 | Nc1nc(-c2ccccn2)c2cnn(Cc3ccccc3F)c2n1 | Active

Row | SMILES | Activity
20 | Nc1nc(-c2ccco2)c2ncn(Cc3cccc([N+](=O)[O-])c3)c2n1 | inactive
21 | Nc1nc(-c2cccs2)c2ncn(C(=O)NCc3ccccc3)c2n1 | inactive
22 | Nc1nc(-c2ccco2)c2ncn(C(=O)NCCc3ccccc3)c2n1 | Active
23 | Nc1nc(-c2ccco2)c2cnn(Cc3ccc(C(F)(F)F)cc3)c2n1 | inactive
24 | Nc1nc(-c2cncs2)c2ncn(C(=O)NCc3ccccc3)c2n1 | Active
25 | Nc1nc(-c2nccs2)c2cnn(Cc3ccccc3F)c2n1 | inactive
26 | Nc1nc(-c2ccco2)c2nc[nH]c2n1 | Active
27 | Nc1nc(-c2ccccc2)c2ncn(C(=O)NCc3ccccc3)c2n1 | Active
28 | Nc1nc(-c2ccco2)c2cnn(Cc3c(F)cccc3F)c2n1 | Active
29 | Cc1cccc(CNC(=O)n2cnc3c(-c4ccco4)nc(N)nc32)c1 | Active
30 | Nc1nc(-c2ccco2)c2ncn(C(=O)NCc3ccccc3Cl)c2n1 | Active
31 | Nc1nc(-c2ccco2)c2cnn(Cc3ccco3)c2n1 | Active
32 | Nc1nc(-c2ccco2)c2ncn(C(=O)NCc3ccco3)c2n1 | Active
33 | Nc1nc(-c2ccco2)c2cnn(Cc3ccccc3N)c2n1 | Active
34 | Nc1nc(-c2ccco2)c2cnn(Cc3ccc([N+](=O)[O-])cc3)c2n1 | inactive
35 | CN(C)c1nc(-c2ccco2)c2ncn(C(=O)NCc3ccccc3)c2n1 | inactive
36 | Nc1nc(-c2ccco2)c2cn[nH]c2n1 | Active
37 | Nc1cccc(Cn2cnc3c(-c4ccco4)nc(N)nc32)c1 | Active
38 | Nc1cccc(Cn2ncc3c(-c4ccco4)nc(N)nc32)c1 | Active

Row | SMILES | Activity
39 | Nc1nc(-c2ccco2)c2cnn(Cc3cccc([N+](=O)[O-])c3)c2n1 | Active
40 | Cc1cccc(Cn2cnc3c(-c4ccco4)nc(N)nc32)c1 | Active
41 | COc1cccc(Cn2cnc3c(-c4ccco4)nc(N)nc32)c1 | Active
42 | Nc1nc(-c2ccco2)c2cnn(Cc3cccnc3)c2n1 | Active
43 | Nc1nc(-c2ccco2)c2cnn(Cc3ccccc3[N+](=O)[O-])c2n1 | inactive
44 | Nc1nc(-c2ccco2)c2ncn(Cc3ccc(C(F)(F)F)cc3)c2n1 | Active
45 | COC(=O)c1cccc(Cn2cnc3c(-c4ccco4)nc(N)nc32)c1 | inactive
46 | OCCNc1nc(-c2ccco2)c2cnn(CCc3ccccc3)c2n1 | inactive
47 | Nc1nc(-c2ccco2)c2cnn(Cc3ccccc3F)c2n1 | Active
48 | Nc1nc(-n2ccnn2)c2cnn(Cc3ccccc3F)c2n1 | Active
49 | Cn1ccnc1-c1nc(N)nc2c1cnn2Cc1ccccc1F | inactive
50 | Nc1nc(-c2ccco2)c2ncn(C(=O)Nc3ccccc3)c2n1 | Active
51 | Cc1ccc(CNC(=O)n2cnc3c(-c4ccco4)nc(N)nc32)cc1 | Active
52 | Nc1nc(-c2ccco2)c2ncn(Cc3c(F)cccc3F)c2n1 | Active
53 | Nc1nc(-c2ccco2)c2cnn(CCCc3ccccc3)c2n1 | Active
54 | Nc1nc(-c2ccco2)c2ncn(C(=O)NCc3ccc(F)cc3)c2n1 | Active
55 | C[C@H](NC(=O)n1cnc2c(-c3ccco3)nc(N)nc21)c1ccccc1 | Active
56 | Nc1nc(-c2ccco2)c2cnn(CC3CCCCC3)c2n1 | Active
57 | COc1cccc(Cn2ncc3c(-c4ccco4)nc(N)nc32)c1 | Active

system: Mus musculus; experiment: Reversal of haloperidol-induced hypolocomotion in mouse at 10 mg/kg, ip; format: functional, organism-based; set-up: dose 10 mg/kg; details: not given

Row | SMILES | Activity
58 | Nc1nc(-c2ccco2)c2nc[nH]c2n1 | Active

system: Mus musculus; experiment: Reversal of haloperidol-induced hypolocomotion in mouse at 1 mg/kg, po; format: functional, organism-based; set-up: dose 1 mg/kg; details: not given

Row | SMILES | Activity
59 | Nc1nc(-c2ccco2)c2nc[nH]c2n1 | Active

system: Mus musculus; experiment: Reversal of haloperidol-induced hypolocomotion in mouse at 30 mg/kg, po; format: functional, organism-based; set-up: dose 30 mg/kg; details: not given

Row | SMILES | Activity
60 | Nc1nc(-c2ccco2)c2ncn(C(=O)NCc3cccs3)c2n1 | Active
61 | Nc1nc(-c2ccco2)c2nc[nH]c2n1 | inactive
62 | Cc1cccc(CNC(=O)n2cnc3c(-c4ccco4)nc(N)nc32)c1 | Active
63 | Nc1nc(-c2ccco2)c2ncn(C(=O)NCc3ccco3)c2n1 | Active
64 | Nc1cccc(Cn2cnc3c(-c4ccco4)nc(N)nc32)c1 | Active

system: Mus musculus; experiment: Reversal of haloperidol-induced hypolocomotion in mouse at 10 mg/kg, po; format: functional, organism-based; set-up: dose 10 mg/kg; details: not given

Row | SMILES | Activity
65 | Nc1nc(-c2ccco2)c2ncn(C(=O)NCc3ccco3)c2n1 | Active

system: Mus musculus; experiment: Reversal of haloperidol-induced hypolocomotion in ip dosed mouse; format: functional; details: read-out: MED

Row | SMILES | minimal effective dose [mg/kg]
66 | Nc1nc(-c2ccco2)c2ncn(C(=O)NCc3cccs3)c2n1 | < 30
67 | Nc1nc(-c2ccco2)c2nc[nH]c2n1 | 10
68 | Cc1cccc(CNC(=O)n2cnc3c(-c4ccco4)nc(N)nc32)c1 | 1
69 | Nc1nc(-c2ccco2)c2ncn(C(=O)NCc3ccco3)c2n1 | < 30
70 | Nc1cccc(Cn2cnc3c(-c4ccco4)nc(N)nc32)c1 | 10

system: Mus musculus; experiment: Reversal of haloperidol-induced hypolocomotion in po dosed mouse; format: functional; details: read-out: MED

Row | SMILES | minimal effective dose [mg/kg]
71 | Nc1nc(-c2ccco2)c2ncn(C(=O)NCc3cccs3)c2n1 | 30
72 | Nc1nc(-c2ccco2)c2nc[nH]c2n1 | 1
73 | Cc1cccc(CNC(=O)n2cnc3c(-c4ccco4)nc(N)nc32)c1 | 30
74 | Nc1nc(-c2ccco2)c2ncn(C(=O)NCc3ccco3)c2n1 | 10
75 | Nc1cccc(Cn2cnc3c(-c4ccco4)nc(N)nc32)c1 | 30

molecular target: Adenosine receptor A2a (Homo sapiens, UniProt P29274); details: not given
Sequence (P29274 whole entry): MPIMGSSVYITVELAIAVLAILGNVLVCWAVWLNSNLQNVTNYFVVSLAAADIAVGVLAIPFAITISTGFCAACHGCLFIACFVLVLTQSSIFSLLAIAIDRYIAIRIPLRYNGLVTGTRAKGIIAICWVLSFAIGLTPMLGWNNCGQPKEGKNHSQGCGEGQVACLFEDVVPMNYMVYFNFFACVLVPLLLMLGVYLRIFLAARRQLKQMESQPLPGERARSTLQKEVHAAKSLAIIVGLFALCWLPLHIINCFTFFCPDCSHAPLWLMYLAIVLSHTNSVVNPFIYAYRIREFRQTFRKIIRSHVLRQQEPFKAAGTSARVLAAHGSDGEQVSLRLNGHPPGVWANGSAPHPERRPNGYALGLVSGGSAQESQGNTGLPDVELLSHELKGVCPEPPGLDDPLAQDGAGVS

Row | SMILES | Ki [nM]
76 | CSc1nc(-c2ccco2)c2ncn(C(=O)NCc3ccccc3)c2n1 | 13
77 | Nc1nc(-c2ccco2)c2cnn(C(=O)NCc3ccccc3)c2n1 | 1
78 | COC(=O)c1cccc(Cn2ncc3c(-c4ccco4)nc(N)nc32)c1 | 4
79 | CS(=O)(=O)c1ccc(Cn2ncc3c(-c4ccco4)nc(N)nc32)cc1 | 340
80 | Nc1nc(-c2ccco2)c2cnn(Cc3cccc(C(=O)O)c3)c2n1 | 1320
81 | Nc1nc(-c2ccco2)c2cc[nH]c2n1 | 242
82 | Cc1cccc(Cn2ncc3c(-c4ccco4)nc(N)nc32)c1 | 3
83 | Nc1nc(-c2ccco2)c2cnn(Cc3ccccc3)c2n1 | 3
84 | Nc1nc(-c2ncc[nH]2)c2cnn(Cc3ccccc3F)c2n1 | 2090
85 | Nc1nc(-c2ccco2)c2ncn(Cc3cccc(Cl)c3)c2n1 | 8
86 | Cc1nc(-c2ccco2)c2ncn(C(=O)NCc3ccccc3)c2n1 | 102
87 | Nc1nc(-c2ccco2)c2ncn(Cc3ccccc3F)c2n1 | 5
88 | C[C@@H](NC(=O)n1cnc2c(-c3ccco3)nc(N)nc21)c1ccccc1 | 26
89 | Nc1nc(-c2ccco2)c2cnn(CCc3ccccc3)c2n1 | 110
90 | Nc1nc(-c2ccco2)c2ncn(Cc3cccc([N+](=O)[O-])c3)c2n1 | 85
91 | Nc1nc(-c2cccs2)c2ncn(C(=O)NCc3ccccc3)c2n1 | 13
92 | Nc1nc(-c2cncs2)c2ncn(C(=O)NCc3ccccc3)c2n1 | 56
93 | Nc1nc(-c2nccs2)c2cnn(Cc3ccccc3F)c2n1 | 17
94 | Nc1nc(-c2ccco2)c2nc[nH]c2n1 | 261
95 | Nc1nc(-c2ccccc2)c2ncn(C(=O)NCc3ccccc3)c2n1 | 17
96 | Nc1nc(-c2ccco2)c2cnn(Cc3ccco3)c2n1 | 36

Row | SMILES | Ki [nM]
97 | Nc1nc(-c2ccco2)c2cnn(Cc3ccc([N+](=O)[O-])cc3)c2n1 | 119
98 | CN(C)c1nc(-c2ccco2)c2ncn(C(=O)NCc3ccccc3)c2n1 | 23
99 | Nc1nc(-c2ccco2)c2cn[nH]c2n1 | 48
100 | Nc1cccc(Cn2cnc3c(-c4ccco4)nc(N)nc32)c1 | 23
101 | Cc1cccc(Cn2cnc3c(-c4ccco4)nc(N)nc32)c1 | 6
102 | Nc1nc(-c2ccco2)c2cnn(Cc3cccnc3)c2n1 | 28
103 | Nc1nc(-c2ccco2)c2cnn(Cc3ccccc3[N+](=O)[O-])c2n1 | 26
104 | CN(C)c1nc(-c2ccco2)c2cnn(CCc3ccccc3)c2n1 | 1890
105 | COC(=O)c1cccc(Cn2cnc3c(-c4ccco4)nc(N)nc32)c1 | 45
106 | OCCNc1nc(-c2ccco2)c2cnn(CCc3ccccc3)c2n1 | 135
107 | Nc1nc(-c2cccs2)c2cnn(Cc3ccccc3F)c2n1 | 9
108 | Nc1nc(-c2ccco2)c2cnn(Cc3ccccc3F)c2n1 | 4
109 | Nc1nc(-n2ccnn2)c2cnn(Cc3ccccc3F)c2n1 | 71
110 | Cn1ccnc1-c1nc(N)nc2c1cnn2Cc1ccccc1F | 1620
111 | CS(=O)(=O)c1ccc(Cn2cnc3c(-c4ccco4)nc(N)nc32)cc1 | 779
112 | Nc1nc(-c2ccco2)c2ncn(Cc3cccc(C(=O)O)c3)c2n1 | 4100
113 | Nc1nc(-c2ccco2)c2ncn(C(=O)Nc3ccccc3)c2n1 | 206
114 | Nc1nc(-c2ccco2)c2cnn(CCCc3ccccc3)c2n1 | 4
115 | Nc1nc(-c2ccco2)c2cnn(CC3CCCCC3)c2n1 | 45
116 | Nc1nc(-c2ccco2)c2ncn(Cc3ccc([N+](=O)[O-])cc3)c2n1 | 372
